Patent publication US20100105652A1, “PURINES AS CYSTEINE PROTEASE INHIBITORS” (Glaxo Group Limited, priority 2007, published 2010)
Where a name gives a salt, the structure may show the parent alone.

Assays:
[1] = tested on: Plasmodium falciparum parasite; test: whole cell activity against the Plasmodium falciparum parasite; format: cell-based
Description: Equation 7 describes the apparent KI for competitive compounds and was substituted into equations 5 and 6 to generate the relevant binding constants from the fitting routine. In addition, the initial and final velocities were fit to equation 3 to further define the binding mechanism and potency. A complete discussion of this kinetic treatment has been fully described (Morrison et al., Adv. Enzymol. Relat. Areas Mol. Biol., 1988, 61, 201). 2) Determination of Whole Cell Activity Against the Plasmodium falciparum Parasite Compounds can be evaluated for whole cell activity against the Plasmodium falciparum parasite according to the procedure described in Sijwali S, and Rosenthal P. J., (2004) Proceedings of the National Academy of Sciences of the United States of America (PNAS) 101(13), 4384-4389 (see in particular “Measurement of Parasite Growth rates and Inhibitor Sensitivity” on page 4385); IC50 values can be calculated as described in Singh A. and Rosenthal P. J., (2001) Antimicrobial Agents and Chemotherapy 45(3), 949-951 (see in particular page 950, first column); synchronised parasites can be prepared as described in Divo A. A. et al., (1985) Protozool. 32, 59-64.

Falcipain-2 = molecular target: T1, Falcipain-2 (Plasmodium falciparum, UniProt Q8I6U4); test: falcipain-2 enzymatic assay (fluorogenic substrate H-D-VLR-AFC, endpoint); format: biochemical; settings: parasitic recombinant enzyme, pH 5.5, quenched after 60 minutes
T1 sequence (Q8I6U4 244-484): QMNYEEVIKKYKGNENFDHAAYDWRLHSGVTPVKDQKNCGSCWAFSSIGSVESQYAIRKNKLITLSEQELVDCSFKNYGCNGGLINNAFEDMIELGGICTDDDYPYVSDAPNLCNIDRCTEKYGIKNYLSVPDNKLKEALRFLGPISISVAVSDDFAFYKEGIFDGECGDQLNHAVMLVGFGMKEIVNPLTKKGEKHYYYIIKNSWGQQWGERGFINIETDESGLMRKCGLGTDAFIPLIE
Description: (§1) 1) Determination of Falcipain-2, Falcipain-3, Vivapain-2, and Cathepsin S Proteolytic Catalytic Activity
(§2) Assays for Falcipain-2, Falcipain-3, and Vivapain-2 are carried out with parasitic recombinant enzymes. Cathepsins S is carried out with human recombinant enzymes. Standard assay conditions for the determination of kinetic constants used a fluorogenic peptide substrate, typically H-D-VLR-AFC (Falcipain-2, Falcipain-3, Vivapain-2) or KQKLR-AMC (Cathepsin S) and are determined in 100 mM sodium acetate, pH 5.5, containing 10 mM DTT and 0.5 mM CHAPS (Falcipain-2, Falcipain-3, Vivapain-2), or 50 mM MES, pH 6.5, containing 0.5 mM CHAPS, 10 mM L-CYS, 5 mM EDTA (Cathepsin S). Stock substrate solutions are prepared at 20 mM in DMSO. The activity assays contained 30 uM substrate (Falcipain-2, Falcipain-3, Vivapain-2), and 30 uM substrate (Cathepsin S). All assays contained 1% DMSO. […] All assays are conducted at ambient temperature as end point assays being quenched after 60 minutes with the exception of Cathepsin S at 90 minutes, with 16.6 uM E-64 in 1% DMSO. Product formation (AFC or AMC) is determined from fluorescence (excitation at 405 nm; emission at 530 nm, AFC, or excitation at 360 nm; emission at 460 nm, AMC) monitored with a LJL Aquest (Molecular Devices) fluorescent plate reader. In the case of kinetic reads (used in mechanism of action studies), the reaction is not quenched but is read in the plate reader every 3 minutes for approximately 90 minutes. In addition, the mechanism of action studies for Falcipain-2 utilize Z-LR-AMC as the substrate. Product formation is determined from the fluorescence of AMC, measured with a LJL Acquest (Molecular Devices) fluorescent plate reader (excitation at 360 nm; emission at 460 nm).
(§3) Potential inhibitors are evaluated using the quenched read (endpoint) method. Assays are carried out in the presence of variable concentrations of test compound. Reactions are initiated by addition of enzyme and substrate to wells containing inhibitor stamped in 100% DMSO. For endpoint assays, the reaction is quenched with the addition of E64. Dose response data is fit to an IC50 curve with preset fitting tools according to equation 1:
(§4) y=a+(b−a)/(1+(10^X/10^C)^d) (1)
(§5) where y is the response at a particular inhibitor concentration x, a is the minimum response value, b is the maximum response value, c is the IC50, and d is the slope of the IC50 curve. Assuming the compound is a competitive inhibitor, the apparent KI can be calculated from IC50, as shown in equation 2: […]

Falcipain-3 = molecular target: T2, Falcipain-3 (Plasmodium falciparum, UniProt Q8IIL0); test: falcipain-3 enzymatic assay (fluorogenic substrate H-D-VLR-AFC, endpoint); format: biochemical; settings: parasitic recombinant enzyme, pH 5.5, quenched after 60 minutes
T2 sequence (Q8IIL0 243-492): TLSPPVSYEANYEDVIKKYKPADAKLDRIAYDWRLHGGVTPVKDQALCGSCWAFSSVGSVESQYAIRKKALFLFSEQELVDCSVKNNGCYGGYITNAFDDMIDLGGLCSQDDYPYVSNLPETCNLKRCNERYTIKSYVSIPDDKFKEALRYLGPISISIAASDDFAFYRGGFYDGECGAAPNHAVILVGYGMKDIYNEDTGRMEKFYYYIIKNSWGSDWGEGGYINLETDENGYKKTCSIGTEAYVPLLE
Description: as §1, §2, §3, §4, §5

| SMILES | IC50 [1] | IC50 (Falcipain-2) | IC50 (Falcipain-3) |
| --- | --- | --- | --- |
| CN1CCC(N2CCN(Cc3ccc(C(=O)NN(CC4CCCC4)c4nc(C#N)nc5c4ncn5C)cc3)CC2)CC1 [Example 18, N′-(2-cyano-9-methyl-9H-purin-6-yl)-N′-(cyclopentylmethyl)-4-({[4-(1-methyl-4-piperidinyl)-1-piperazinyl]methyl}benzohydrazide trifluoroacetate] | 15 to 150 nM | 2.5 to 15 nM | 15 to 150 nM |
| CN(C)CCCn1cnc2c(N(NC(=O)OC(C)(C)C)C3CCOCC3)nc(C#N)nc21 [Example 19, 1,1-dimethylethyl 2-{2-cyano-9-[3-(dimethylamino)propyl]-9H-purin-6-yl}-2-(tetrahydro-2H-pyran-4-yl)hydrazinecarboxylate trifluoroacetate] | 15 to 150 nM | 2.5 to 15 nM | 15 to 150 nM |
| CC(=O)N1CCC(N(NC(=O)OC(C)(C)C)c2nc(C#N)nc3c2ncn3C)CC1 [Example 20, 1,1-dimethylethyl-2-(1-acetyl-4-piperidinyl)-2-(2-cyano-9-methyl-9H-purin-6-yl)hydrazinecarboxylate] | 150 to 250 nM | 1 to 2.5 nM | 150 to 250 nM |
| CC(C)(C)OC(=O)NN(CC1CCCC1)c1nc(C#N)nc2c1ncn2CCN1C(=O)c2ccccc2C1=O [Example 21, 1,1-dimethylethyl-2-{2-cyano-9-[2-(1,3-dioxo-1,3-dihydro-2H-isoindol-2-yl)ethyl]-9H-purin-6-yl}-2-(cyclopentylmethyl)hydrazinecarboxylate] | 250 to 400 nM | 15 to 150 nM | 250 to 400 nM |
| CC(C)CN(NC(=O)c1ccc(CN2CCN(C)CC2)cc1)c1nc(C#N)nc2c1ncn2C [Example 22, N′-(2-cyano-9-methyl-9H-purin-6-yl)-4-[(4-methyl-1-piperazinyl)methyl]-N′-(2-methylpropyl)benzohydrazide] | 400 to 1000 nM | 15 to 150 nM | 250 to 400 nM |
| CN1CCN(Cc2ccc(C(=O)NN(CC3CCCC3)c3nc(C#N)nc4c3ncn4C)cc2)CC1 [Example 23, N′-(2-cyano-9-methyl-9H-purin-6-yl)-N′-(cyclopentylmethyl)-4-[(4-methyl-1-piperazinyl)methyl]benzohydrazide trifluoroacetate] | 400 to 1000 nM | 2.5 to 15 nM | 15 to 150 nM |

Other lines, results leading:

| IC50 [1] | IC50 (Falcipain-2) | IC50 (Falcipain-3) | SMILES |
| --- | --- | --- | --- |
| 250 to 400 nM | 2.5 to 15 nM | 150 to 250 nM | CN1CCN(Cc2cccc(C(=O)NN(c3nc(C#N)nc4c3ncn4C)C3CCCC3)n2)CC1 [Example 26, N′-(2-cyano-9-methyl-9H-purin-6-yl)-N′-cyclopentyl-6-[(4-methyl-1-piperazinyl)methyl]-2-pyridinecarbohydrazide trifluoroacetate] |
| 15 to 150 nM | ≤ 1 nM | 15 to 150 nM | CN1CCN(Cc2ccc(-c3cncc(C(=O)NN(c4nc(C#N)nc5c4ncn5C)C4CCCC4)c3)cc2)CC1 [Example 27, N′-(2-Cyano-9-methyl-9H-purin-6-yl)-N′-cyclopentyl-5-{4-[(4-methyl-1-piperazinyl)methyl]phenyl}-3-pyridinecarbohydrazide trifluoroacetate] |
| 15 to 150 nM | 2.5 to 15 nM | 15 to 150 nM | CN1CCN(Cc2ccc(-c3cccc(C(=O)NN(c4nc(C#N)nc5c4ncn5C)C4CCCC4)n3)cc2)CC1 [Example 28, N′-(2-cyano-9-methyl-9H-purin-6-yl)-N′-cyclopentyl-6-{4-[(4-methyl-1-piperazinyl)methyl]phenyl}-2-pyridinecarbohydrazide trifluoroacetate] |
| 400 to 1000 nM | ≤ 1 nM | 2.5 to 15 nM | CN1CCN(C(=O)n2cnc3c(N(NC(=O)OC(C)(C)C)C4CCCC4)nc(C#N)nc32)CC1 [Example 29, 1,1-dimethylethyl 2-{2-cyano-9-[(4-methyl-1-piperazinyl)carbonyl]-9H-purin-6-yl}-2-cyclopentylhydrazinecarboxylate] |
| 400 to 1000 nM | 2.5 to 15 nM | 15 to 150 nM | CN1CCN(Cc2ccc(C(=O)NN(c3nc(C#N)nc4[nH]cnc34)C3CCCCC3)cc2)CC1 [Example 30, N′-(2-cyano-1H-purin-6-yl)-N′-cyclohexyl-4-[(4-methyl-1-piperazinyl)methyl]benzohydrazide trifluoroacetate] |
